# Test results taken from patent US20110105623A1 (Biogenic Innovations, LLC, priority 2009, published 2011).
# Legend:
# Format in all cases: cell-based
# [1] = system: Escherichia coli; experiment: USP <51> AET in cosmetic cream/composition; conditions: for AET microorganism count: 48 hrs-28 days; for Log Reduction from Initial Microorganism Inoculum: 14, 28 Days
# [2] = system: Lactobacillus rhamnosus; experiment: Growth in MRS broth fortified with MSM; conditions: for Growth: 0.04% MSM in MRS broth, 0-72 hours
# Procedure: (§1) Each organism (Lactobacillus rhamnosus, Lactobacillus acidophilus, and Bifidobacterium bifidum) was grown in MRS bacterial growth medium (broth) and plated on MRS agar at different time intervals. Results are expressed in colony forming units per milliliter (cfu/mL).
# (§2) The 0.1% and 0.04% test concentrations were prepared by making a 1:10 dilution of the 1% and 0.4% test solutions. Once each set of test media was plated for sterility, they were inoculated at a level of 100 μl of inoculum per 100 g or mLs of test broth (1:1000 inoculum dilutions) with each respective microorganism. All bacterial organisms were incubated at 35° C.+/−2° C. for the duration of the study.
# (§3) All samples were plated on MRS agar at time 0, 12, 36, 48, 60 and 72 hours (+/−45 minutes). All preparations and plating were conducted at room temperature. All plating events were incubated at 35° C.+/−2° C. for at least 2 days or 3 days for Bifidobacterium. Test samples were plated in triplicate at each test date and the averages are reported.
# [3] = system: Bifidobacterium bifidum; experiment: Growth in MRS broth fortified with MSM (anaerobic); conditions: for log higher than the 0% MSM control: 48 hours
# Procedure: as §1, §2, §3
# Bifidobacterium bifidum, a common microbe used in probiotics, was also tested. All Bifidobacterium samples were incubated under anaerobic conditions.
# [4] = system: Lactobacillus acidophilus; experiment: Probiotic growth in media supplemented with MSM
# Excerpt: Plates were then counted. […] Data are presented in Cfu/mL.
substance,measurement,setting,value
Methylsulfonylmethane [MSM],AET microorganism count,"[1]; 10% MSM in Preservative Free Cosmetic Composition #1, 48 hours after inoculation",5.4 × 10^4
same,AET microorganism count,"[1]; 10% MSM in Preservative Free Cosmetic Composition #1, 7 days after inoculation",<10
same,AET microorganism count,[1]; 10% MSM in cosmetic cream without preservative,<10
same,Log Reduction from Initial Microorganism Inoculum,[1]; 10% MSM in preservative-free jojoba cream,5.7 log
same,Log Reduction from Initial Microorganism Inoculum,"[1]; 10% MSM, Composition #1",5.8 log
same,Log Reduction from Initial Microorganism Inoculum,"[1]; 10% MSM, Composition #2",5.8 log
same,Growth,[2]; 0 hours after inoculation,1.7 × 10^6 cfu/mL
same,Growth,[2]; 12 hours after inoculation,2.1 × 10^7 cfu/mL
same,Growth,[2]; 24 hours after inoculation,1.5 × 10^9 cfu/mL
same,Growth,[2]; 36 hours after inoculation,1.8 × 10^9 cfu/mL
same,Growth,[2]; 48 hours after inoculation,2.1 × 10^9 cfu/mL
same,Growth,[2]; 60 hours after inoculation,2.6 × 10^9 cfu/mL
same,higher than 0% control,"[2]; first 12 hours, 0.2% MSM",41%
same,higher than 0% control,"[2]; first 12 hours, 1% MSM",47%
same,recovered more than the 0% control,"[2]; first 12 hours, all MSM samples",at least 12%
same,log increases of Bifidobacterium,[3]; 0.2% MSM,2 log
same,log higher than the 0% MSM control,[3]; 0.04% MSM,1 log
same,log higher than the 0% MSM control,[3]; 0.2% MSM,1 log
same,Growth of Lactobacillus acidophilus,"[4]; 0.125% MSM, 0 h",1.37 log10 CFU/mL
same,Growth of Lactobacillus acidophilus,"[4]; 0.125% MSM, 8 h",2.19 log10 CFU/mL
same,Growth of Lactobacillus acidophilus,"[4]; 0.125% MSM, 16 h",4.83 log10 CFU/mL
same,Growth of Lactobacillus acidophilus,"[4]; 0.125% MSM, 24 h",7.14 log10 CFU/mL
same,Growth of Lactobacillus acidophilus,"[4]; 0.125% MSM, 32 h",9.15 log10 CFU/mL
same,Growth of Lactobacillus acidophilus,"[4]; 0.125% MSM, 40 h",9.53 log10 CFU/mL
same,Growth of Lactobacillus acidophilus,"[4]; 0.125% MSM, 48 h",9.59 log10 CFU/mL
same,Growth of Lactobacillus acidophilus,"[4]; 0.125% MSM, 56 h",10.16 log10 CFU/mL
same,Growth of Lactobacillus acidophilus,"[4]; 0.125% MSM, 64 h",9.40 log10 CFU/mL
same,Growth of Lactobacillus acidophilus,"[4]; 0.125% MSM, 72 h",8.56 log10 CFU/mL
same,Growth of Lactobacillus acidophilus,"[4]; 0.2% MSM, 0 h",1.37 log10 CFU/mL
same,Growth of Lactobacillus acidophilus,"[4]; 0.2% MSM, 8 h",1.43 log10 CFU/mL
same,Growth of Lactobacillus acidophilus,"[4]; 0.2% MSM, 16 h",5.74 log10 CFU/mL
same,Growth of Lactobacillus acidophilus,"[4]; 0.2% MSM, 24 h",8.19 log10 CFU/mL
same,Growth of Lactobacillus acidophilus,"[4]; 0.2% MSM, 32 h",9.85 log10 CFU/mL
same,Growth of Lactobacillus acidophilus,"[4]; 0.2% MSM, 40 h",9.50 log10 CFU/mL
same,Growth of Lactobacillus acidophilus,"[4]; 0.2% MSM, 48 h",9.32 log10 CFU/mL
same,Growth of Lactobacillus acidophilus,"[4]; 0.2% MSM, 56 h",9.26 log10 CFU/mL
same,Growth of Lactobacillus acidophilus,"[4]; 0.2% MSM, 64 h",9.37 log10 CFU/mL
same,Growth of Lactobacillus acidophilus,"[4]; 0.2% MSM, 72 h",8.36 log10 CFU/mL
same,Growth of Lactobacillus acidophilus,"[4]; 0.50% MSM, 0 h",1.30 log10 CFU/mL
same,Growth of Lactobacillus acidophilus,"[4]; 0.50% MSM, 8 h",2.01 log10 CFU/mL
same,Growth of Lactobacillus acidophilus,"[4]; 0.50% MSM, 16 h",3.82 log10 CFU/mL
same,Growth of Lactobacillus acidophilus,"[4]; 0.50% MSM, 24 h",6.47 log10 CFU/mL
same,Growth of Lactobacillus acidophilus,"[4]; 0.50% MSM, 32 h",9.15 log10 CFU/mL
same,Growth of Lactobacillus acidophilus,"[4]; 0.50% MSM, 40 h",9.58 log10 CFU/mL
same,Growth of Lactobacillus acidophilus,"[4]; 0.50% MSM, 48 h",10.45 log10 CFU/mL
same,Growth of Lactobacillus acidophilus,"[4]; 0.50% MSM, 56 h",9.33 log10 CFU/mL
same,Growth of Lactobacillus acidophilus,"[4]; 0.50% MSM, 64 h",9.53 log10 CFU/mL
same,Growth of Lactobacillus acidophilus,"[4]; 0.50% MSM, 72 h",8.57 log10 CFU/mL
same,Growth of Lactobacillus acidophilus,"[4]; 1% MSM, 0 h",1.48 log10 CFU/mL
same,Growth of Lactobacillus acidophilus,"[4]; 1% MSM, 8 h",2.25 log10 CFU/mL
same,Growth of Lactobacillus acidophilus,"[4]; 1% MSM, 16 h",3.79 log10 CFU/mL
same,Growth of Lactobacillus acidophilus,"[4]; 1% MSM, 24 h",6.77 log10 CFU/mL
same,Growth of Lactobacillus acidophilus,"[4]; 1% MSM, 32 h",9.05 log10 CFU/mL
same,Growth of Lactobacillus acidophilus,"[4]; 1% MSM, 40 h",9.49 log10 CFU/mL
same,Growth of Lactobacillus acidophilus,"[4]; 1% MSM, 48 h",10.98 log10 CFU/mL
same,Growth of Lactobacillus acidophilus,"[4]; 1% MSM, 56 h",10.90 log10 CFU/mL
same,Growth of Lactobacillus acidophilus,"[4]; 1% MSM, 64 h",10.34 log10 CFU/mL
same,Growth of Lactobacillus acidophilus,"[4]; 1% MSM, 72 h",8.68 log10 CFU/mL
same,Growth of Lactobacillus acidophilus,"[4]; 5% MSM, 0 h",1.52 log10 CFU/mL
same,Growth of Lactobacillus acidophilus,"[4]; 5% MSM, 8 h",1.37 log10 CFU/mL
same,Growth of Lactobacillus acidophilus,"[4]; 5% MSM, 16 h",2.69 log10 CFU/mL
same,Growth of Lactobacillus acidophilus,"[4]; 5% MSM, 24 h",5.36 log10 CFU/mL
same,Growth of Lactobacillus acidophilus,"[4]; 5% MSM, 32 h",8.91 log10 CFU/mL
same,Growth of Lactobacillus acidophilus,"[4]; 5% MSM, 40 h",9.25 log10 CFU/mL
same,Growth of Lactobacillus acidophilus,"[4]; 5% MSM, 48 h",10.88 log10 CFU/mL
same,Growth of Lactobacillus acidophilus,"[4]; 5% MSM, 56 h",10.01 log10 CFU/mL
same,Growth of Lactobacillus acidophilus,"[4]; 5% MSM, 64 h",8.95 log10 CFU/mL
same,Growth of Lactobacillus acidophilus,"[4]; 5% MSM, 72 h",6.66 log10 CFU/mL
same,Growth of Lactobacillus acidophilus,"[4]; […] MSM, 0 h",1.48 log10 CFU/mL
